Test results: patent US20240376114A1, “NUCLEAR TRANSPORT MODULATORS AND USES THEREOF” (Karyopharm Therapeutics Inc., priority 2011, published 2024)
pIC50: −log10 of the molar value. Structures can show the parent of a compound that is named as a salt.

Assays:
HCT-116 cells [1] = experiment: Western blot of p53, p21, PARP in cytoplasmic and nuclear fractions of HCT-116 cells; assay type: cell-based; conditions: 10 μM
Experimental: HCT-116 cells were incubated with 10 μM Compound 1 for 2, 4, 6, 16, or 24 hours (indicated in FIGS. 2A and 2B as “2+,” 4+,” etc.), or with 10 μM Compound 1 for 22 hours and an additional 1 μM Compound 1 for another 2 hours (indicated in FIGS. 2A and 2B as “22+2+”). At the end of the incubation period, total protein extracts were prepared. Cytoplasmic and nuclear proteins were separated, immunoblotted and reacted with antibodies to p53, p21, full-length (FL) PARP, cleaved PARP and lamin B.

[2] = Brain to plasma (B:P) ratio determination; assay type: in vivo; conditions: brain and plasma; mouse, PO at 10 mg/kg, 2 hours post-dose
Description: The brain to plasma (B:P) ratio is one method of quantifying the relative distribution of a therapeutic agent in brain tissue to that in circulation and, as such, provides one indication of the brain penetration of a given therapeutic agent. A high brain to plasma ratio is preferred when targeting diseases localized in the central nervous system (CNS), including the brain and the cerebrospinal fluid. However, a lower brain to plasma ratio is generally preferable for non-CNS therapeutic agents to minimize brain penetration and avoid potential side effects caused by unwanted accumulation of the therapeutic agents in the brain and CNS tissue.
Brain to Plasma (B:P) Ratio. […] Following collection, brain tissue was rinsed with cold saline, dried on filter paper, weighed and snap-frozen by placing on dry ice. All samples were stored frozen at approximately −80° C. until analysis. […] Plasma samples were treated with the identical method (except homogenization step) and the concentration of compound in each matrix was calculated based on generated standard curves.

HCT-116 cells [3] = experiment: Immunofluorescence of pRb localization in HCT-116 cells; assay type: cell-based; conditions: 10 μM, 24 hours
Experimental: HCT-116 cells were incubated with 10 μM Compound 1 for 24 hours, at which time the cells were fixed and stained with antibodies to pRb or DAPI.

[4] = test system: splenocytes and circulating CD8 cells; experiment: FACS of immune cells at day 26 of the EAE model; assay type: in vivo, mouse; conditions: day 26, high dose (75 mg/kg)
Description: On day 26, a subset of mice was sacrificed and immune cells were subjected to fluorescence-activated cell sorting (FACS) using standard methods.

[5] = CellTiter 96 AQueous One Solution (MTS) cell proliferation assay; assay type: cell-based; conditions: human, MM.1S multiple myeloma cells; MM.1S cells, 72 h treatment; read-out: Cytotoxicity [EC50]
Description: The CellTiter 96® AQueous One Solution cell proliferation assay (Promega) was used on MM.1S multiple myeloma cell line to study the cytotoxic and cytostatic properties of the compounds. The assay is based on the cleavage of the tetrazolium salt, MTS, in the presence of an electron-coupling reagent PES (phenazine ethosulfate). The MTS tetrazolium compound is bioreduced by cells into a colored formazan product that is soluble in tissue culture medium. This conversion is presumably accomplished by NADPH or NADH produced by dehydrogenase enzymes in metabolically active cells. Assays are performed by adding a small amount of the CellTiter 96® AQueous One solution reagent directly to culture wells, incubating for 1-4 hours and then recording the absorbance at 490 nm with a 96-well plate reader.
The cells were seeded at 5×10^3 to 1.5×10^4 cells (depending on cell type) in each well of a 96-well plate in 100 μL of fresh culture medium and adherent cells were allowed to attach overnight. The stock solutions of the compounds were diluted in cell culture medium to obtain eight concentrations of each drug, ranging from 1 nM to 30 μM and DMSO at less than 1% v/v was used as a negative control. The resulting drug solutions were transferred onto the cells. After 72 h of treatment, 20 μl of CellTiter 96® AQueous reagent was added into each well of the 96-well assay plates and the plate was incubated at 37° C. for 1-4 hours in a humidified, 5% CO2 atmosphere. Then the absorbance of each well was recorded at 490 nm using a 96-well plate reader. In most cases, the assay was performed in triplicate and the results were presented as half maximal inhibitory concentration (IC50). Optical density versus compound concentration was plotted and analyzed using non-linear regression equations (IDBS XLfit) and the IC50 for each compound was calculated.

[6] = Pharmacokinetic (PK) assay, plasma AUC; assay type: in vivo; conditions: 10 mg/kg, mouse, PO, 10 mpk, read-out: AUCInf hr * ng/mL (mouse, PO, 10 mpk)
Experimental: Pharmacokinetics (PK) play an increasing role in drug discovery and development. Pharmacokinetics is the quantitative study of the time course of drug absorption, distribution, metabolism and/or excretion. When a drug is administered, it distributes rapidly from its administration site into the systemic blood circulation. One measure of the extent of a therapeutic agent's distribution is the area under the plasma concentration-time curve (AUC), calculated to the last measured concentration (AUCt) and extrapolated to infinity (AUCinf). AUC is thus a useful metric to quantitate drug exposure. AUC. Blood was collected from mice (N=3) to contribute to the total of 10 time points (pre-dose, 5 min, 15 min, 30 min, 1 hour, 2 hours, 4 hours, 8 hours, 12 hours and 24 hours post dose). Mice were bled on a rotating basis, each mouse contributing 3 time points to the blood collection. At the designated time points, animals were anaesthetized under isoflurane, and approximately 110 μL of blood per time point was collected via retro-orbital puncture into pre-cooled K2EDTA (anti-coagulant) tubes. Blood samples were put on wet ice and centrifuged (2000 g, 5 min at 4° C.) to obtain plasma within 30 minutes of sample collection. All samples were stored frozen at approximately −80° C. until analysis. Prior to analysis, samples were mixed with internal standard (dexamethasone) in acetonitrile, vortexed, centrifuged, and supernatant was injected for analysis. Concentration of compounds in plasma was determined using LC-MS-MS instrumentation (API 4000, Triple Quadruple with electrospray ionization; Acuity Ultra Performance Liquid Chromatography column C18, with MeOH and formic acid as organic solvents). AUC values were calculated using WinNonlin Professional 6.2 software package, non-compartmental pharmacokinetic model NCA200.

HCT-116 cells [7] = experiment: Western blot of pRb and phosphorylated pRb in HCT-116 cells; assay type: cell-based; conditions: 10 μM, more than 6 hours
Experimental: HCT-116 cells were incubated with 10 μM Compound 1 for 2, 4, 6, 16, or 24 hours (indicated in FIGS. 3A and 3B as “2+,” 4+,” etc.), or with 10 μM Compound 1 for 22 hours and an additional 1 μM Compound 1 for another 2 hours (indicated in FIGS. 3A and 3B as “22+2+”). At the end of the incubation period, total protein extracts were prepared. Cytoplasmic and nuclear proteins were separated, immunoblotted and reacted with antibodies to phosphorylated pRb (pRb^phos), pRb, actin and lamin B.

[8] = test system: EAE model of multiple sclerosis; conditions: 25 mg/kg and 75 mg/kg, oral gavage, 3 days per week
CRM1 [9] = target: T1, CRM1 (Homo sapiens (Human), UniProt O14980); experiment: Immunofluorescence of p21 and p53 localization in HCT-116 cells; assay type: cell-based; conditions: 10 μM, 24 hours
Experimental: HCT-116 cells were incubated with 10 μM Compound 1 for 24 hours, at which time the cells were fixed and stained with antibodies to p21 or p53, or the DNA stain, DAPI.

HCT-116 xenografts = experiment: Inhibition of HCT-116 xenografts in vivo
Experimental: Mice were inoculated on the hind flank with HCT-116 cell line and the HCT-116 xenografts were grown to approximately 150 mm^3, at which time treatment was initiated. Treatment groups were as follows:
50 mg/kg 5-FU IP, days 1-3;
25 mg/kg Compound 1 compound QD×5 SC (low dose);
75 mg/kg Compound 1 compound QD×5 SC (high dose).

HCT-116 cells [10] = experiment: Immunofluorescence of APC and IκB localization in HCT-116 cells; assay type: cell-based; conditions: 10 μM, 24 hours
Experimental: HCT-116 cells were incubated with 10 μM Compound 1 for 24 hours, at which time the cells were fixed and stained with antibodies to APC or IκB, or DAPI.

CRM1 [11] = target: T1, CRM1; experiment: RevGFP assay: inhibition of CRM1-mediated nuclear export; assay type: cell-based; conditions: U2OS-RevGFP cells, about 1 hr incubation; read-out: Rev Export [IC50]
Experimental: The ability of exemplary compounds of the invention to inhibit CRM1-mediated nuclear export was assessed in a RevGFP assay. Rev is a protein from human immunodeficiency virus type 1 (HIV-1) and contains a nuclear export signal (NES) in its C-terminal domain and a nuclear localization signal (NLS) in its N-terminal domain. Nuclear export of Rev protein is dependent on the classical NES/CRM1 pathway (Neville et al. 1997).
In this assay, U2OS-RevGFP cells were seeded onto clear-bottomed, black, 384-well plates the day before the experiment. Compounds were serially diluted 1:2 in DMEM, starting from 40 μM in a separate, 384-well plate, and then transferred onto the cells. The cells were incubated with compound for about 1 hr before fixation with 3.7% formaldehyde and nuclei staining with Hoechst 33258. The amount of GFP in cell nuclei was measured and the IC50 of each compound was determined (Kau et al. 2003). […]

T1 sequence (O14980 whole entry): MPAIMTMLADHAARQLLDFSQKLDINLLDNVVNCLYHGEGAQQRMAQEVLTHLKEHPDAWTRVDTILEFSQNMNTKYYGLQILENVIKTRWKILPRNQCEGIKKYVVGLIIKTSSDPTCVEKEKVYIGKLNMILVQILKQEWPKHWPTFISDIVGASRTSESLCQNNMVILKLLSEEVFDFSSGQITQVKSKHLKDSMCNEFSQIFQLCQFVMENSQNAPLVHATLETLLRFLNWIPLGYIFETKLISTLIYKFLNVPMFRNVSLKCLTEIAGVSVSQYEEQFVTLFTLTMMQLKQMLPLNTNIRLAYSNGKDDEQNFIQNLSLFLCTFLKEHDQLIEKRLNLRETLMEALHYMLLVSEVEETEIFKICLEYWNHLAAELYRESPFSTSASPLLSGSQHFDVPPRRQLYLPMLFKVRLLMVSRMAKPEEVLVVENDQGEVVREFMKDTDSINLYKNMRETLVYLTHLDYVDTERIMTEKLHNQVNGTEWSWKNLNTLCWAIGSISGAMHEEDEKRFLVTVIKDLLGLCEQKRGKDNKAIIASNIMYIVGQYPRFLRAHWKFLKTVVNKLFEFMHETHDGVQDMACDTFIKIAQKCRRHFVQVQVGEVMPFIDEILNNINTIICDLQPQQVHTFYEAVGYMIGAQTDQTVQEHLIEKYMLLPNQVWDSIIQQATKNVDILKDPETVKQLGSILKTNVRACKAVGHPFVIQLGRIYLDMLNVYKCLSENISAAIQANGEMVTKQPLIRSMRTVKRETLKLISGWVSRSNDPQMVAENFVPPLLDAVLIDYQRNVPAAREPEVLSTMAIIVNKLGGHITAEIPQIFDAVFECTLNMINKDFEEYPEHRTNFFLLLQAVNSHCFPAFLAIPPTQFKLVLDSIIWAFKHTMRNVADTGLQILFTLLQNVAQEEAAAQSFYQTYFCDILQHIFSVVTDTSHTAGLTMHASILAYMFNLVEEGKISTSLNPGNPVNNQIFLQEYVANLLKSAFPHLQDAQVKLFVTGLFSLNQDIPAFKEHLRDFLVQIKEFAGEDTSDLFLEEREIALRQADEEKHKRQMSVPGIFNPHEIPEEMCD

## O=C(/C=C\n1cnc(-c2cc(C(F)(F)F)cc(C(F)(F)F)c2)n1)N1CC(F)(F)C1 [Compound 1, (Z)-3-(3-(3,5-bis(trifluoromethyl)phenyl)-1H-1,2,4-triazol-1-yl)-1-(3,3-difluoroazetidin-1-yl)prop-2-en-1-one]
HCT-116 cells [1]; 2-24 hours
  Induction of p21 and p53 (Western blot): induces p21 and p53 in both cytoplasmic and nuclear fractions
HCT-116 cells [1]; 24 hours
  Induction of apoptosis (PARP decrease, cleaved PARP increase): induces apoptosis in HCT-116 cells after 24 hours
[2]
  Kp at 2 h: 5
HCT-116 cells [3]
  Nuclear localization of pRb: induced nuclear localization of the tumor suppressor gene protein, pRb
[4]
  Number of splenocytes and circulating CD8 cells (FACS): modest decrease in the number of splenocytes and circulating CD8 cells
[5]
  EC50 at 72 h: < 1000 nM
[6]
  AUC(0-inf): 12300 ng·h/mL
HCT-116 cells [7]
  Phosphorylation state of pRb (Western blot): induces dephosphorylation of pRb in both cytoplasmic and nuclear fractions
[8]
  EAE clinical score: reduced the clinical score in a statistically significant manner
CRM1 [9]
  Nuclear export function of CRM1: inhibited the nuclear export function of CRM1
  Subcellular localization of p21 and p53: both p21 and p53 were concentrated in the nucleus
HCT-116 xenografts; 25 or 75 mg/kg QDx5 SC, HCT-116 xenograft mice
  Tumor growth (tumor volume as percentage of initial volume): inhibited tumor growth
HCT-116 xenografts; vs 50 mg/kg 5-FU IP days 1-3
  Anti-tumor effect compared to 5-FU: superior anti-tumor effects compared to 5-FU
HCT-116 cells [10]
  Nuclear localization of APC and IκB: induced the nuclear localization of the tumor suppressor proteins, APC and IκB

## O=C(/C=C/n1cnc(-c2cc(C(F)(F)F)cc(C(F)(F)F)c2)n1)N1CC(F)(F)C1 [Compound 4, (E)-3-(3-(3,5-bis(trifluoromethyl)phenyl)-1H-1,2,4-triazol-1-yl)-1-(3,3-difluoroazetidin-1-yl)prop-2-en-1-one]
[5]
  EC50 at 72 h: < 1000 nM
CRM1 [11]
  pIC50: > 6.00

## O=C(/C=C\n1cnc(-c2cc(C(F)(F)F)cc(C(F)(F)F)c2)n1)NC1C2CNCC21 (stereo not drawn) [Compound 56, (Z)—N-(3-azabicyclo[3.1.0]hexan-6-yl)-3-(3-(3,5-bis(trifluoromethyl)phenyl)-1H-1,2,4-triazol-1-yl)acrylamide hydrochloride]
[5]
  EC50 at 72 h: < 1000 nM
CRM1 [11]
  pIC50: > 6.00
